Experimental data from patent publication US20150038417A1, “GLP-1 Agonists” (Novo Nordisk A/S, priority 2011, published 2015).

Test system: Normal male Sprague Dawley rats
Experiment: Effect of liraglutide on alcohol consumption (two-bottle choice: water vs 10% alcoholic drink)
Format: in vivo, rat
Excerpt: Certain strains of rats are alcohol dependent and consume large amounts of alcohol if given the choice.
Normal male Sprague Dawley rats were housed individually and fed normal rat chow. Each rat had access to two drinking bottles, one of them containing water and one of them containing a 10% alcoholic drink (diluted Toffee liquor from ALDI®). The rats were acclimatised to the alcoholic drink for a least one week. Consumption of water and the alcoholic drink were continuously recorded on line using the BIOdaq food and water intake monitoring system http://www.bodaq.com/®.
Basal water and alcoholic drink consumption was recorded on a 24 h daily basis. After this had stabilised, consumption of water and alcoholic drink was recorded over a 24 h period. […] Water and alcohol consumption were recorded for 24 h after injection.

**Q.** Which results are given for “Liraglutide (HAEGTFTSDVSSYLEGQAAKEFIAWLVRGRG; chains of the INN, looked up)”?
**A.** Accumulated fluid intake over 24 h, alcohol (10% alcoholic drink), after Liraglutide (Mean ± SEM) (30 μg/kg liraglutide s.c., single dose, 24 h after injection, n=8, same group before dosing 25.6 ± 0.6 g, p < 0.001, paired t-test): 16.1 ± 1.3 g; Effect on 24 h intake of alcoholic drink and water (in words) (30 μg/kg liraglutide s.c., before vs after administration): significantly and selectively reduced intake of alcoholic drink and not water; Alcohol intake compared with vehicle treated rats (in words) (rats offered to choose between alcohol and water): significantly reduces the alcohol intake
